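Values below derive from 48-hour exposures of cells grown in 96-well plates, with endpoints linearly interpolated between the two concentrations bracketing the appropriate inhibition level. GI50 = concentration required for 50% inhibition of growth.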 Active and inactive are the calls of the source. Rule as the data show it: active = GI50 up to about 1.1 µM and inactive = higher.
Assays:
Experiment in all cases: growth of human tumour cells (NCI), 48 h
[1] = system: HCT-116
[2] = system: COLO 205
[3] = system: HT-29
[4] = system: LOX IMVI
[5] = system: SK-MEL-5
[6] = system: HL-60
[7] = system: ACHN
[8] = system: A498
[9] = system: 786-0
[10] = system: NCI-H23
[11] = system: NCI-H460
[12] = system: SK-MEL-28
[13] = system: K562
[14] = system: SN12C
[15] = system: Malme-3M
[16] = system: DMS-273
[17] = system: SNB-78
[18] = system: EKVX
[19] = system: HOP-18
[20] = system: SR
[21] = system: HOP-62
[22] = system: NCI-H226
[23] = system: M19-MEL
[24] = system: NCI-H522
[25] = system: UO-31
[26] = system: A549
[27] = system: RXF 393
[28] = system: OVCAR-4
[29] = system: DLD-1
[30] = system: CCRF-CEM
[31] = system: OVCAR-3
[32] = system: SK-OV-3
[33] = system: SF-295
[34] = system: SNB-19
[35] = system: MOLT-4
[36] = system: CAKI-1
[37] = system: OVCAR-5
[38] = system: LXFL 529
[39] = system: XF498
[40] = system: M14
[41] = system: SW-620
[42] = system: KM-20L2
[43] = system: SF-539
[44] = system: TK-10
[45] = system: OVCAR-8
[46] = system: U-251
[47] = system: SF-268
[48] = system: IGROV-1
[49] = system: KM12
[50] = system: SK-MEL-2
[51] = system: UACC-62
[52] = system: HCT-15
[53] = system: RXF 631
[54] = system: UACC-257
[55] = system: SNB-75
[56] = system: DMS-114
[57] = system: HOP-92
[58] = system: HCC 2998
[59] = system: RPMI-8226

SMILES: N#CC(c1ccccc1)c1nc2ccc(N)cc2[n+]([O-])c1C(C#N)c1ccccc1 (stereo unspecified)
- GI50 [1]: 54.1 µM (inactive)
- GI50 [2]: 76.4 µM (inactive)
- GI50 [3]: 58.7 µM (inactive)
- GI50 [4]: 64.9 µM (inactive)
- GI50 [5]: 1 µM (active)
- GI50 [6]: 34.9 µM (inactive)
- GI50 [7]: 58.1 µM (inactive)
- GI50 [8]: > 100 µM (inactive)
- GI50 [9]: > 100 µM (inactive)
- GI50 [10]: 67.8 µM (inactive)
- GI50 [11]: 73.3 µM (inactive)
- GI50 [12]: > 100 µM (inactive)
- GI50 [13]: 44.5 µM (inactive)
- GI50 [14]: 79.1 µM (inactive)
- GI50 [15]: 99.5 µM (inactive)
- GI50 [16]: 45.9 µM (inactive)
- GI50 [17]: > 100 µM (inactive)
- GI50 [18]: > 100 µM (inactive)
- GI50 [19]: > 100 µM (inactive)
- GI50 [20]: 23.8 µM (inactive)
- GI50 [21]: > 100 µM (inactive)
- GI50 [22]: > 100 µM (inactive)
- GI50 [23]: 55.1 µM (inactive)
- GI50 [24]: 46.9 µM (inactive)
- GI50 [25]: 68.2 µM (inactive)
- GI50 [26]: 57.8 µM (inactive)
- GI50 [27]: 38.9 µM (inactive)
- GI50 [28]: 74 µM (inactive)
- GI50 [29]: 43.6 µM (inactive)
- GI50 [30]: 46.6 µM (inactive)
- GI50 [31]: 91.8 µM (inactive)
- GI50 [32]: > 100 µM (inactive)
- GI50 [33]: > 100 µM (inactive)
- GI50 [34]: > 100 µM (inactive)
- GI50 [35]: 53.7 µM (inactive)
- GI50 [36]: 69.8 µM (inactive)
- GI50 [37]: > 100 µM (inactive)
- GI50 [38]: 51.1 µM (inactive)
- GI50 [39]: 48.5 µM (inactive)
- GI50 [40]: 86.7 µM (inactive)
- GI50 [41]: 57.4 µM (inactive)
- GI50 [42]: 75.3 µM (inactive)
- GI50 [43]: > 100 µM (inactive)
- GI50 [44]: > 100 µM (inactive)
- GI50 [45]: 56.4 µM (inactive)
- GI50 [46]: 59.6 µM (inactive)
- GI50 [47]: > 100 µM (inactive)
- GI50 [48]: > 100 µM (inactive)
- GI50 [49]: 60.7 µM (inactive)
- GI50 [50]: 40.2 µM (inactive)
- GI50 [51]: 47.3 µM (inactive)
- GI50 [52]: 46 µM
- GI50 [53]: 86.9 µM (inactive)
- GI50 [54]: > 100 µM (inactive)

SMILES: C=C1C(=O)O[C@H]2[C@H]1[C@H](OC(=O)/C(C)=C\C)CC(=C)[C@@H]1[C@H](O)[C@H]3O[C@@]3(C)[C@@]12O [EUPATUNDIN]
- GI50 [1]: > 100 µM (inactive)
- GI50 [2]: > 100 µM (inactive)
- GI50 [3]: > 100 µM (inactive)
- GI50 [55]: > 100 µM (inactive)
- GI50 [4]: > 100 µM (inactive)
- GI50 [5]: > 100 µM (inactive)
- GI50 [7]: > 100 µM (inactive)
- GI50 [56]: > 100 µM (inactive)
- GI50 [57]: > 100 µM (inactive)
- GI50 [9]: > 100 µM (inactive)
- GI50 [10]: > 100 µM (inactive)
- GI50 [11]: > 100 µM (inactive)
- GI50 [12]: > 100 µM (inactive)
- GI50 [13]: > 100 µM (inactive)
- GI50 [14]: > 100 µM (inactive)
- GI50 [15]: > 100 µM (inactive)
- GI50 [16]: > 100 µM (inactive)
- GI50 [17]: > 100 µM (inactive)
- GI50 [18]: > 100 µM (inactive)
- GI50 [19]: > 100 µM (inactive)
- GI50 [20]: > 100 µM (inactive)
- GI50 [21]: > 100 µM (inactive)
- GI50 [23]: > 100 µM (inactive)
- GI50 [24]: > 100 µM (inactive)
- GI50 [25]: > 100 µM (inactive)
- GI50 [26]: > 100 µM (inactive)
- GI50 [28]: > 100 µM (inactive)
- GI50 [29]: > 100 µM (inactive)
- GI50 [30]: > 100 µM (inactive)
- GI50 [31]: > 100 µM (inactive)
- GI50 [32]: > 100 µM (inactive)
- GI50 [58]: > 100 µM (inactive)
- GI50 [59]: > 100 µM (inactive)
- GI50 [33]: > 100 µM (inactive)
- GI50 [34]: > 100 µM (inactive)
- GI50 [36]: > 100 µM (inactive)
- GI50 [38]: > 100 µM (inactive)
- GI50 [39]: > 100 µM (inactive)
- GI50 [40]: > 100 µM (inactive)
- GI50 [41]: > 100 µM (inactive)
- GI50 [42]: > 100 µM (inactive)
- GI50 [43]: > 100 µM (inactive)
- GI50 [44]: > 100 µM (inactive)
- GI50 [45]: > 100 µM (inactive)
- GI50 [46]: > 100 µM (inactive)
- GI50 [47]: > 100 µM (inactive)
- GI50 [48]: > 100 µM (inactive)
- GI50 [49]: > 100 µM (inactive)
- GI50 [50]: > 100 µM (inactive)
- GI50 [51]: > 100 µM (inactive)
- GI50 [52]: > 100 µM
- GI50 [53]: > 100 µM (inactive)
